According to US20230219911A1, “BENZOTHIAZOLE DERIVATIVES AND USES THEREOF” (SHENYANG PHARMACEUTICAL UNIVERSITY, priority 2020, published 2023):

These compounds were tested against T1, sEH enzyme (human recombinant) (Homo sapiens, UniProt P34913) (assay: in vitro sEH enzyme activity by fluorescence analysis, single concentration inhibition). Conditions: compound 0.1 μM; human recombinant sEH; PHOME substrate; 37° C. 15 min; read-out: sEH % inhibition, @ 0.1 μM.
T1 construct: purchased Cayman Chemical
T1 sequence (P34913 1-555): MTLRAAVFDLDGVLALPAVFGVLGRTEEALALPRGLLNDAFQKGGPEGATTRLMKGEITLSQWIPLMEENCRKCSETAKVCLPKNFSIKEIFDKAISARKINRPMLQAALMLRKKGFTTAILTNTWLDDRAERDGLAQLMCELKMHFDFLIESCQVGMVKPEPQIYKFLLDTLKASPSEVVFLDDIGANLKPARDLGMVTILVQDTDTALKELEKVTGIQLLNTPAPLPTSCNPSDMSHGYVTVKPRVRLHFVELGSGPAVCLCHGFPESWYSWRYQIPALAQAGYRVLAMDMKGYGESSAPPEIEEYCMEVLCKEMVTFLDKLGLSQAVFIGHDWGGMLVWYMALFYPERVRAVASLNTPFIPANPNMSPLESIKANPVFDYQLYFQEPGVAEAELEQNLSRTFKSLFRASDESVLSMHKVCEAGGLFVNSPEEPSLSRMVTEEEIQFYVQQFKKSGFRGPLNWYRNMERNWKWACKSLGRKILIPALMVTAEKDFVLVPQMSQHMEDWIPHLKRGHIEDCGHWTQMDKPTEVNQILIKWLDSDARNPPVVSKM
Format: biochemical
Method: The benzothiazole skeleton compounds (concentration: 0.1 μM) according to the above formula I of the present invention were tested for the in vitro sEH enzyme activity by fluorescence analysis.
12 μL of sEH enzyme (human recombinant, 0.5 mg/mL, Cayman Chemical) was diluted with 588 μL of buffer (25 mM bis-Tris, pH 7.0). The fluorescent substrate was PHOME (cyano-(6-methoxy-naphthalen-2-yl)-methyl (3-phenyl-oxiranyl)-acetate) in DMSO (10 μM, Cayman Chemical). The compound to be tested was dissolved in 100% DMSO at a concentration of 4 μM. 185 μL of buffer (25 mM bis-Tris, pH 7.0), 5 μL of compound solution, and 5 μL of diluted sEH enzyme were added to the wells of a 96-well plate, and finally 5 μL of substrate solution was added to initiate the reaction. After incubating at 37° C. for 15 min, the fluorescence signal was measured with a microplate reader (excitation wavelength 330 nm, emission wavelength 465 nm).
Inhibition (%)=(F0−F1)/(F0)×100.

inhibition at 0.1 µM [%] | SMILES
55.9 | Nc1nc2cnc(N(CCN3CCOCC3)C(=O)Nc3cccnc3)nc2s1 [Example 44, 1-(2-aminothiazo[5,4-d]pyrimidin-5-yl)-1-[2-(4-morpholinyl)ethyl]-3-(pyridin-3-yl)urea]
15.8 | O=C(CCc1ccccc1)Nc1nc2ccc(N(CCN3CCOCC3)C(=O)Nc3ccc(Cl)cc3)cc2s1 [Example 33]
90.5 | CCOC(=O)Nc1nc2ccc(N(CCN3CCOCC3)C(=O)Nc3ccc(Cl)cc3)cc2s1 [Example 28, 1-[2-(2-ethoxyformamido)benzo[d]thiazol-6-yl]-1-[2-(4-morpholinyl)ethyl]-3-(4-chlorophenyl)urea]
34.7 | Nc1nc2cnc(N(CCN3CCOCC3)C(=O)Nc3ccc(OC(F)(F)F)cc3)cc2s1 [Example 41, 1-(2-aminothiazo[4,5-c]pyridin-6-yl)-1-[2-(4-morpholinyl)ethyl]-3-(4-trifluoromethoxyphenyl)urea]
41.5 | CCNc1nc2ccc(N(CCN3CCOCC3)C(=O)Nc3ccc(F)cc3)nc2s1 [Example 39, 1-[2-(ethylamino)thiazo[5,4-b]pyridin-5-yl]-1-[2-(4-morpholinyl)ethyl]-3-(4-fluorophenyl)urea]
57.2 | Nc1nc2ccc(N(CCN3CCOCC3)C(=O)Nc3ccc(F)cc3)nc2s1 [Example 38, 1-(2-aminothiazo[5,4-b]pyridin-5-yl)-3-(4-fluorophenyl)-1-[2-(4-morpholinyl)ethyl]urea]
10.3 | Cc1ccc(NC(=O)N(CCN2CCOCC2)c2ccc3nc(N)oc3c2)cc1 [Example 35, 1-(2-aminobenzo[d]oxazol-6-yl)-1-[2-(4-morpholinyl)ethyl]-3-(4-methylphenyl)urea]
28.4 | Nc1nc2ccc(N(CCN3CCCC3)C(=O)Nc3ccc(Cl)cc3)cc2s1 [Example 24, 1-(2-aminobenzo[d]thiazol-6-yl)-1-[2-(pyrrolidin-1-yl)ethyl]-3-(4-chlorophenyl)urea]
45.6 | CC(=O)Nc1nc2ccc(N(CCN3CCOCC3)C(=O)Nc3ccc(C)cc3)cc2o1 [Example 36, 1-(2-acetamidobenzo[d]oxazol-6-yl)-1-[2-(4-morpholinyl)ethyl]-3-(4-methylphenyl)urea]
66.8 | Cc1ccc(NC(=O)N(CCN2CCOCC2)c2ccc3nc(NC(=O)Cc4ccccc4)oc3c2)cc1 [Example 37, 1-(2-phenylacetamidobenzo[d]oxazol-6-yl)-1-[2-(4-morpholinyl)ethyl]-3-(4-methylphenyl)urea]
32.5 | O=C(NCc1ccccc1)Nc1nc2ncc(N(CCN3CCOCC3)C(=O)Nc3ccc(Br)c(F)c3)cc2s1 [Example 47, 1-[2-(3-benzylureido)thiazo[4,5-b]pyridin-6-yl]-1-[2-(4-morpholinyl)ethyl]-3-(4-bromo-3-fluorophenyl)urea]
52.1 | O=C(Nc1nc2cnc(N(CCN3CCOCC3)C(=O)Nc3ccc(OC(F)(F)F)cc3)cc2s1)C1CC1 [Example 42, 1-(2-cyclopropylformamidothiazo[4,5-c]pyridin-6-yl)-1-[2-(4-morpholinyl)ethyl]-3-(4-trifluoromethoxyphenyl)urea]
32.5 | O=C(Cc1ccccc1)Nc1nc2ccc(N(CCN3CCOCC3)C(=O)Nc3ccc(C(F)(F)F)cc3)cc2s1 [Example 34, 1-(2-phenylacetamidobenzo[d]thiazol-6-yl)-1-[2-(4-morpholinyl)ethyl]-3-(4-trifluoromethylphenyl)urea]
77.6 | O=C(Nc1nc2ccc(N(CCN3CCOCC3)C(=O)Nc3ccc(Cl)cc3)cc2s1)c1ccccc1 [Example 32, 1-(2-phenylformamidobenzo[d]thiazol-6-yl)-1-[2-(4-morpholinyl)ethyl]-3-(4-chlorophenyl)urea]
45.2 | CC(=O)Nc1nc2cnc(N(CCN3CCOCC3)C(=O)Nc3cccnc3)nc2s1 [Example 45, 1-(2-acetamidothiazo[5,4-d]pyrimidin-5-yl)-1-[2-(4-morpholinyl)ethyl]-3-(pyridin-3-yl)urea]
36.5 | Nc1nc2ccc(N(CCCN3CCOCC3)C(=O)Nc3ccc(Cl)cc3)cc2s1 [Example 26, 1-(2-aminobenzo[d]thiazol-6-yl)-1-[3-(4-morpholinyl)propyl]-3-(4-chlorophenyl)urea]
78.2 | CCOC(=O)CNc1nc2cnc(N(CCN3CCOCC3)C(=O)Nc3ccc(OC(F)(F)F)cc3)cc2s1 [Example 43]
67.9 | O=C(CCc1ccccc1)Nc1nc2cnc(N(CCN3CCOCC3)C(=O)Nc3cccnc3)nc2s1 [Example 46]

Second part, the compound before the results:

SMILES | inhibition at 0.1 µM [%]
Nc1nc2ccc(N(CCN3CCOCC3)C(=O)Nc3ccccn3)cc2s1 [Example 14, 1-(2-aminobenzo[d]thiazol-6-yl)-1-[2-(4-morpholinyl)ethyl]-3-(pyridin-2-yl)urea] | 16.2
CC(C)(C)OC(=O)Nc1nc2ccc(N(CCN3CCOCC3)C(=O)Cc3ccc(Cl)cc3)cc2s1 [Example 31, tert-butyl (6-{2-(4-chlorophenyl)-N-[2-(4-morpholinyl)ethyl]acetamido}benzo[d]thiazol-2-yl)carbamate] | 70.9
CCN(CC)CCN(C(=O)Nc1ccc(Cl)cc1)c1ccc2nc(N)sc2c1 [Example 21, 1-(2-aminobenzo[d]thiazol-6-yl)-1-[2-(N,N-diethylamino)ethyl]-3-(4-chlorophenyl)urea] | 86.2
CC1CCN(CCN(C(=O)Nc2ccc(Cl)cc2)c2ccc3nc(N)sc3c2)CC1 [Example 22, 1-(2-aminobenzo[d]thiazol-6-yl)-1-[2-(4-methylpiperidin-1-yl)ethyl]-3-(4-chlorophenyl)urea] | 67.5
Nc1nc2ccc(N(CCN3CCOCC3)C(=O)Nc3ccc(OC(F)(F)F)cc3)cc2s1 [Example 17, 1-(2-aminobenzo[d]thiazol-6-yl)-1-[2-(4-morpholinyl)ethyl]-3-(4-trifluoromethoxyphenyl)urea] | 70.3
Nc1nc2ccc(NC(=O)NCc3ccc(Cl)cc3)cc2s1 [Example 5, 1-(2-aminobenzo[d]thiazol-6-yl)-3-(4-chlorobenzyl)urea] | 47
CC(C)Oc1ccc(NC(=O)N(CCN2CCOCC2)c2ccc3nc(N)sc3c2)cc1 [Example 19, 1-(2-aminobenzo[d]thiazol-6-yl)-1-[2-(4-morpholinyl)ethyl]-3-(4-isopropoxyphenyl)urea] | 76.6
NC(=O)Nc1ccc2nc(N)sc2c1 [Example 2, 1-(2-aminobenzo[d]thiazol-6-yl)urea] | 11.7
CC(C)c1ccc(NC(=O)N(CCN2CCOCC2)c2ccc3nc(N)sc3c2)cc1 [Example 20, 1-(2-aminobenzo[d]thiazol-6-yl)-1-[2-(4-morpholinyl)ethyl]-3-(4-isopropylphenyl)urea] | 75.2
Nc1nc2ccc(NC(=O)NC3CCCCC3)cc2s1 [Example 6, 1-(2-aminobenzo[d]thiazol-6-yl)-3-cyclohexylurea] | 2.15
Nc1nc2ccc(N(CCN3CCOCC3)C(=O)Nc3ccc([N+](=O)[O-])cc3)cc2s1 [Example 8, 1-(2-aminobenzo[d]thiazol-6-yl)-1-[2-(4-morpholinyl)ethyl]-3-(4-nitrophenyl)urea] | 19.2
Nc1nc2ccc(N(CCN3CCOCC3)C(=O)Nc3cccc4ccccc34)cc2s1 [Example 15, 1-(2-aminobenzo[d]thiazol-6-yl)-1-[2-(4-morpholinyl)ethyl]-3-(naphthalen-1-yl)urea] | 39
CC(=O)Nc1ccc(NC(=O)N(CCN2CCOCC2)c2ccc3nc(N)sc3c2)cc1 [Example 10, 1-(2-aminobenzo[d]thiazol-6-yl)-1-[2-(4-morpholinyl)ethyl]-3-(4-acetamidophenyl)urea] | 2.16
CC(=O)c1ccc(NC(=O)N(CCN2CCOCC2)c2ccc3nc(N)sc3c2)cc1 [Example 9, 1-(2-aminobenzo[d]thiazol-6-yl)-1-[2-(4-morpholinyl)ethyl]-3-(4-acetylphenyl)urea] | 28.2
Nc1nc2ccc(NC(=O)Nc3ccccc3)cc2s1 [Example 3, 1-(2-aminobenzo[d]thiazol-6-yl)-3-phenylurea] | 32.9
CN1CCN(CCN(C(=O)Nc2ccc(C(F)(F)F)cc2)c2ccc3nc(N)sc3c2)CC1 [Example 23, 1-(2-aminobenzo[d]thiazol-6-yl)-1-[2-(4-methylpiperazin-1-yl)ethyl]-3-(4-trifluoromethylphenyl)urea] | 43.7
